Data as given in the supplement of paper PMC6965134.
± gives the standard deviation of the averaged measurements.

Test: TIMS collisional cross section (CCS, N2) of the lipid ion; higher = larger ion cross section
Details: ionization mode: positive, one isomer drawn

Compound: CC/C=C\C/C=C\C/C=C\C/C=C\C/C=C\CCCC(=O)OC[C@H](COP(=O)(O)OCCN)OC(=O)CCCCCCCCCCCCCCCCC [PE 20:5_18:0] (ion (formula + adduct): [C43H76NO8P+H] 1+)
- TIMS collisional cross section (sample type: Liver): 281.4 Å²

Compound: CCCC/C=C\CCCCCCCCCCCC(=O)O[C@H](COC(=O)CCCCCCCCCCCCCCCCCCCCC)COP(=O)(O)OCCN [PE 22:0_18:1@] (ion (formula + adduct): [C45H88NO8P+H] 1+)
- TIMS collisional cross section (sample type: HeLa): 294.9 Å²

Compound: CCCCC/C=C\C/C=C\C/C=C\C/C=C\CCCCCC(=O)OC[C@H](COP(=O)(O)OCCN)OC(=O)CCCCCCCCCCCCCCCCC [PE 22:4_18:0] (ion (formula + adduct): [C45H82NO8P+H] 1+)
- TIMS collisional cross section (sample type: Liver): 289.7 Å²

Compound: CC/C=C\C/C=C\C/C=C\C/C=C\C/C=C\C/C=C\CCC(=O)OC[C@H](COP(=O)(O)OCCN)OC(=O)CCCCCCC/C=C\CCCCCC [PE 22:6@_16:1] (ion (formula + adduct): [C43H72NO8P+H] 1+)
- TIMS collisional cross section (sample type: HeLa): 275 Å²

Compound: CC/C=C\C/C=C\C/C=C\C/C=C\C/C=C\C/C=C\CCC(=O)OC[C@H](COP(=O)(O)OCCN)OC(=O)CCCCCCC/C=C\CCCCCCCC [PE 22:6_18:1@] (ion (formula + adduct): [C45H76NO8P+H] 1+)
- TIMS collisional cross section (sample type: HeLa): 281.9 Å²

Compound: CC/C=C\C/C=C\C/C=C\C/C=C\C/C=C\C/C=C\CCC(=O)OC[C@H](COP(=O)(O)OCCN)OC(=O)CCCCCCC/C=C\CCCCCCCC [PE 22:6_18:1] (ion (formula + adduct): [C45H76NO8P+H] 1+)
- TIMS collisional cross section (sample type: Liver): 281.4 Å²

Compound: CC/C=C\C/C=C\C/C=C\C/C=C\C/C=C\C/C=C\CCC(=O)OC[C@H](COP(=O)(O)OCCN)OC(=O)CCCCCCCCCCCCCCCCCCC [PE 22:6_20:0] (ion (formula + adduct): [C47H82NO8P+H] 1+)
- TIMS collisional cross section (sample type: Liver): 292.6 Å²

Compound: CC/C=C\C/C=C\C/C=C\C/C=C\C/C=C\C/C=C\CCC(=O)OC[C@H](COP(=O)(O)OCCN)OC(=O)CC/C=C\C/C=C\C/C=C\C/C=C\C/C=C\C/C=C\CC [PE 22:6_22:6] (ion (formula + adduct): [C49H74NO8P+H] 1+)
- TIMS collisional cross section (sample type: HeLa): 286.7 Å²

Compound: CCCCCCCC/C=C\CCCCCCCC(=O)O[C@H](COCCCCCCCCCCCCCCCC)COP(=O)(O)OCCN [PE O- 16:0@_18:1] (ion (formula + adduct): [C39H78NO7P+H] 1+)
- TIMS collisional cross section (sample type: HeLa): 276 Å²

Compound: CCCCC/C=C\C/C=C\C/C=C\C/C=C\CCCC(=O)O[C@H](COCCCCCCCCCCCCCCCC)COP(=O)(O)OCCN [PE O- 16:0@_20:4] (ion (formula + adduct): [C41H76NO7P+H] 1+)
- TIMS collisional cross section (sample type: plasma): 275.8 Å²

Compound: CCCCC/C=C\C/C=C\C/C=C\C/C=C\C/C=C\CCC(=O)O[C@H](COCCCCCCCCCCCCCCCC)COP(=O)(O)OCCN [PE O- 16:0@_22:5] (ion (formula + adduct): [C43H78NO7P+H] 1+)
- TIMS collisional cross section (sample type: HeLa): 281.6 Å²

Compound: CC/C=C\C/C=C\C/C=C\C/C=C\C/C=C\C/C=C\CCC(=O)O[C@H](COCCCCCCCCCCCCCCCC)COP(=O)(O)OCCN [PE O- 16:0@_22:6] (ion (formula + adduct): [C43H76NO7P+H] 1+)
- TIMS collisional cross section (sample type: HeLa): 279.6 Å²

Compound: CCCCC/C=C\C/C=C\C/C=C\C/C=C\CCCC(=O)O[C@H](COCCCCCCCCCCCCCCCCCC)COP(=O)(O)OCCN [PE O- 18:0@_20:4] (ion (formula + adduct): [C43H80NO7P+H] 1+)
- TIMS collisional cross section (sample type: Liver): 284 Å²

Compound: CCCCCCCC/C=C\CCCCCCCC(=O)O[C@H](CO/C=C\CCCCCCCCCCCCCC)COP(=O)(O)OCCN [PE P- 16:0@_18:1] (ion (formula + adduct): [C39H76NO7P+H] 1+)
- TIMS collisional cross section (sample type: HeLa): 274 Å²
- TIMS collisional cross section (sample type: Liver): 274.1 Å²
- TIMS collisional cross section (sample type: plasma): 274.1 Å²

Compound: CCCCC/C=C\C/C=C\CCCCCCCC(=O)O[C@H](CO/C=C\CCCCCCCCCCCCCC)COP(=O)(O)OCCN [PE P- 16:0@_18:2] (ion (formula + adduct): [C39H74NO7P+H] 1+)
- TIMS collisional cross section (sample type: HeLa): 270.7 Å²
- TIMS collisional cross section (sample type: Liver): 270.5 Å²
- TIMS collisional cross section (sample type: plasma): 270.6 Å²

Compound: CCCCCCCCC/C=C\CCCCCCCC(=O)O[C@H](CO/C=C\CCCCCCCCCCCCCC)COP(=O)(O)OCCN [PE P- 16:0@_19:1] (ion (formula + adduct): [C40H78NO7P+H] 1+)
- TIMS collisional cross section (sample type: HeLa): 277.5 Å²

Compound: CCCCCCCC/C=C\CCCCCCCCCC(=O)O[C@H](CO/C=C\CCCCCCCCCCCCCC)COP(=O)(O)OCCN [PE P- 16:0@_20:1] (ion (formula + adduct): [C41H80NO7P+H] 1+)
- TIMS collisional cross section (sample type: HeLa): 280.8 Å²

Compound: CCCCC/C=C\C/C=C\C/C=C\CCCCCCC(=O)O[C@H](CO/C=C\CCCCCCCCCCCCCC)COP(=O)(O)OCCN [PE P- 16:0@_20:3] (ion (formula + adduct): [C41H76NO7P+H] 1+)
- TIMS collisional cross section (sample type: HeLa): 275.1 Å²
- TIMS collisional cross section (sample type: plasma): 276.2 Å²

Compound: CCCCC/C=C\C/C=C\C/C=C\C/C=C\CCCC(=O)O[C@H](CO/C=C\CCCCCCCCCCCCCC)COP(=O)(O)OCCN [PE P- 16:0@_20:4] (ion (formula + adduct): [C41H74NO7P+H] 1+)
- TIMS collisional cross section (sample type: Liver): 273.9 Å²

Compound: CCCCC/C=C\C/C=C\C/C=C\C/C=C\CCCCCC(=O)O[C@H](CO/C=C\CCCCCCCCCCCCCC)COP(=O)(O)OCCN [PE P- 16:0@_22:4] (ion (formula + adduct): [C43H78NO7P+H] 1+)
- TIMS collisional cross section (sample type: Liver): 281.6 Å²
- TIMS collisional cross section (sample type: plasma): 281.6 Å²

Compound: CC/C=C\C/C=C\C/C=C\C/C=C\C/C=C\C/C=C\CCC(=O)O[C@H](CO/C=C\CCCCCCCCCCCCCC)COP(=O)(O)OCCN [PE P- 16:0@_22:6] (ion (formula + adduct): [C43H74NO7P+H] 1+)
- TIMS collisional cross section (sample type: HeLa): 277.3 Å²
- TIMS collisional cross section (sample type: plasma): 277.4 Å²

Compound: CCCCCCCCCCCCCC/C=C\OC[C@H](COP(=O)(O)OCCN)OC(=O)CCCCCCCCCCCCCCC [PE P- 16:0_16:0] (ion (formula + adduct): [C37H74NO7P+H] 1+)
- TIMS collisional cross section (sample type: HeLa): 272 Å²

Compound: CCCCCCCC/C=C\CCCCCCCC(=O)O[C@H](CO/C=C\CCCCCCCCCCCCCCCC)COP(=O)(O)OCCN [PE P- 18:0@_18:1] (ion (formula + adduct): [C41H80NO7P+H] 1+)
- TIMS collisional cross section (sample type: plasma): 281.4 Å²

Compound: CCCCC/C=C\C/C=C\CCCCCCCC(=O)O[C@H](CO/C=C\CCCCCCCCCCCCCCCC)COP(=O)(O)OCCN [PE P- 18:0@_18:2] (ion (formula + adduct): [C41H78NO7P+H] 1+)
- TIMS collisional cross section (sample type: Liver): 278 Å²

Compound: CCCCC/C=C\C/C=C\C/C=C\CCCCCCC(=O)O[C@H](CO/C=C\CCCCCCCCCCCCCCCC)COP(=O)(O)OCCN [PE P- 18:0@_20:3] (ion (formula + adduct): [C43H80NO7P+H] 1+)
- TIMS collisional cross section (sample type: HeLa): 283.7 ± 0.71 Å²
- TIMS collisional cross section (sample type: plasma): 282.7 Å²
